Measured values from patent US7105162B1, “Pharmaceutical composition for immunomodulation based on peptides and adjuvants” (Boehringer Ingelheim International GmbH, priority 1996, dated 2006).

Assays:
[1] = tested on: P388D1 cells; assay: Permeabilisation of the cell membrane: LDH release (Cytotox 96); assay type: cell-based, murine; settings: isotonic conditions; FIG. 12
Method: Peptides can be absorbed by APCs by means of specific mechanisms such as macropinocytosis or receptor-mediated endocytosis (Lanzavecchia, 1996). An alternative mechanism may consist in the polyamino acids making the cell membrane permeable and in this way allowing peptides to diffuse from the medium into the cytoplasm. • a) The possible permeabilisation of the cell membrane was tested by measuring the release of the cytoplasmic enzyme lactate dehydrogenase (LDH) after the incubation of P388D1 cells with polyamino acids (polylysine or polyarginine) under isotonic conditions using the commercially available kit (Cytotox 96, Promega, Madison, Wis., USA) in accordance with the manufacturer's instructions. […] When samples treated with polyamino acids alone were compared, no difference in the release of LDH was found compared with treatment with a mixture of polylysine or polyarginine with peptide. […] The fluorescence emitted by FITC is strongly pH-dependent. In an environment with pH conditions such as those found in endosomes, fluorescence is suppressed. Therefore, FITC-labelled peptides which are absorbed by the cells into the endosomes show reduced fluorescence. When monensin is added, the low pH of the endosomes is neutralised, leading to a measurably greater fluorescence of the internalised FITC-labelled peptides.

[2] = tested on: APCs; assay: Internalisation of FITC-labelled peptide (monensin treatment, 4° C. versus 37° C.), throughflow cytometry; assay type: cell-based; settings: incubated at 37° C., then 50 μM monensin at 4° C.; FIG. 13
Method: Peptides can be absorbed by APCs by means of specific mechanisms such as macropinocytosis or receptor-mediated endocytosis (Lanzavecchia, 1996). An alternative mechanism may consist in the polyamino acids making the cell membrane permeable and in this way allowing peptides to diffuse from the medium into the cytoplasm. • a) The possible permeabilisation of the cell membrane was tested by measuring the release of the cytoplasmic enzyme lactate dehydrogenase (LDH) after the incubation of P388D1 cells with polyamino acids (polylysine or polyarginine) under isotonic conditions using the commercially available kit (Cytotox 96, Promega, Madison, Wis., USA) in accordance with the manufacturer's instructions. […] The fluorescence emitted by FITC is strongly pH-dependent. In an environment with pH conditions such as those found in endosomes, fluorescence is suppressed. Therefore, FITC-labelled peptides which are absorbed by the cells into the endosomes show reduced fluorescence. When monensin is added, the low pH of the endosomes is neutralised, leading to a measurably greater fluorescence of the internalised FITC-labelled peptides.
The cells were incubated with a mixture of polyarginine (average molecular weight range 100,000, chain length 490) and fluorescence-labelled peptide at 4° C. or 37° C. […]

LFEAIEGFI [FITC-labelled model peptide antigen, MHC Kd-restricted, derived from influenza haemagglutinin]
LDH released from cells [1]: no measurable LDH-activity
change in fluorescence after monensin treatment [2]: only a slight increase in fluorescence
